Experimental data taken from patent US20240025875A1, “A COMPOUND AS A THYROID HORMONE BETA RECEPTOR AGONIST AND USE THEREOF” (SUNSHINE LAKE PHARMA CO., LTD., priority 2020, published 2024).

Columns and labels:
TRα = target: T1, TRα (Homo sapiens, UniProt P10827); experiment: LanthaScreen TR-FRET Thyroid Receptor alfa Coactivator Assay (in vitro binding activity); details: TR alfa-LBD
T1 construct: 5 μL of 4×TR beta/alfa-LBD; purchased Invitrogen PV4687
Description: (§1) 2. Detection of the Binding Activity of the Compound of the Present Invention to TRα or TRβ In Vitro
(§2) Test Materials • LanthaScreen TR-FRET Thyroid Receptor beta Coactivator Assay kit was purchased from Invitrogen, Cat. No. PV4686; • LanthaScreen TR-FRET Thyroid Receptor alfa Coactivator Assay kit was purchased from Invitrogen, Cat. No. PV4687.
(§3) The method was experimented with LanthaScreen TR-FRET Thyroid Receptor beta/alfa Coactivator Assay kit. The test compound was dissolved in DMSO and diluted 3 times to a total of 10 concentrations, and then diluted with TR-FRET Coregulator Buffer C in the kit to form a solution containing 2% DMSO, 10 μL of the solution containing 2% DMSO was taken into a 384-well plate, then 5 μL of 4×TR beta/alfa-LBD, 5 μL of a mixture containing 0.4 μM fluorescein-SRC2-2 and 8 nM Tb anti-GST antibody were added into each well, mixed thoroughly, and incubated at room temperature for 1 h in the dark. After 1 h, BMG LABTECH's PHERAstar FSX microplate reader was used to read the fluorescence value (RFU) at […]. The TR-FRET ratio was calculated by dividing the emission signal at 520 nm by the emission signal at 495 nm. Graph Pad Prism 5 software was used to draw the curve and calculate the EC50 value. The in vitro binding activity test results of some of the compounds of the examples of the present invention are shown in Table 1 below.

TRβ = target: T2, TRβ (Homo sapiens, UniProt P10828); experiment: LanthaScreen TR-FRET Thyroid Receptor beta Coactivator Assay (in vitro binding activity); details: TR beta-LBD
T2 construct: 5 μL of 4×TR beta/alfa-LBD; purchased Invitrogen PV4686
T2 sequence (P10828 217-461 limits assumed): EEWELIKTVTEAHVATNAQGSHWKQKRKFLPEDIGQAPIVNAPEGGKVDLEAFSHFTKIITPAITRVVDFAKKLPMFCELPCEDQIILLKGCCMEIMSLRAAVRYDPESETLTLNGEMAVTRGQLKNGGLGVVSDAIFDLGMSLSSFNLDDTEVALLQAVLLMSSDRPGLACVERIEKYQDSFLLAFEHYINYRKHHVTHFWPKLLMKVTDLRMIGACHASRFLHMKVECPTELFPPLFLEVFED
Description: as §1, §2, §3

[1] = Pharmacokinetic determination in SD rats (i.v. and i.g.); type: in vivo; details: for AUC(0-inf) / AUC(0-t) / Cmax / clearance / half-life / Vd: male, Sprague-Dawley (SD), rat, plasma; for Vd: read-out: VSS
Description: Test purposes: The following method was used to determine the pharmacokinetics of the compound of the present invention.
Test Materials: • Experimental reagents and test samples used: Propranolol (internal standard), methanol, ammonium acetate, K2EDTA (potassium ethylenediaminetetraacetic acid), formic acid, acetonitrile MTBE (methyl tert-butyl ether). KolliphorHS15 (macrogol 12 hydroxystearate), DMSO (dimethyl sulfoxide) are commercially available • SD rats: male, 180-220 g, 7-8 weeks old, purchased from Human Slack Experimental Animal Co., Ltd.
Each test sample prepared was completely dissolved in a mixture of 5% DMSO+5% KolliphorHS 15+90% Saline according solubility property thereof.
Samples were processed by liquid-liquid extraction, chromatographically separated, quantitatively analyzed by multiple reaction ion monitoring (MRM) on a triple quadrupole tandem mass spectrometer, and the concentration of the results was calculated by instrument quantitative software.
30 μL of plasma sample was precisely pipetted, added with 250 μL of internal standard, and vortexed to mix thoroughly. Plasma samples was extracted once with 1 mL of MTBE, centrifuged at 13,000 rpm for 2 min at 4° C. 800 μL of the supernatant was sucked out, evaporated to dryness in a 96-well nitrogen blower, and the residue was reconstituted with 150 μL of methanol/water (v/v=50/50), vortexed to mix, and injected with an injection volume of 8 μL.
LC/MS/MS method was used to determine the content of the test compound in rat plasma after administration of different compounds.
Pharmacokinetic parameters were calculated using a noncompartmental method by WinNonLin 6.1 software.

T1 sequence (P10827 163-410 isoform P10827-2 limits assumed, other chains not shown): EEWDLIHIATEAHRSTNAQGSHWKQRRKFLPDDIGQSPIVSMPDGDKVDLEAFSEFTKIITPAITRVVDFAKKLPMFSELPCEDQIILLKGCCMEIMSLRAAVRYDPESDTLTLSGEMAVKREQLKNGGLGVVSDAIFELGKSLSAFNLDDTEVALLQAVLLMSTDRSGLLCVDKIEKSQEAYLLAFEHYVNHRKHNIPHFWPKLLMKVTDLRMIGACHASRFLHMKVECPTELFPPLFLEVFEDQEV

Row | SMILES | EC50 (TRα) [µM] | EC50 (TRβ) [µM] | further results
1 | O=C1c2ccc(Oc3c(Cl)cc(-n4ncc(=O)[nH]c4=O)cc3Cl)cc2CCN1Cc1cccnc1 [Example 45, 2-(3,5-dichloro-4-((1-oxo-2-(pyridin-3-ylmethyl)-1,2,3,4-tetrahydroisoquinolin-6-yl)oxy)phenyl)-1,2,4-triazine-3,5(2H,4H)-dione] | > 100 | 0.061 | F ([1]; ig, 5 mg/kg): 163.9%; AUC(0-inf) ([1]; iv, 1 mg/kg): 2510 ng·h/mL; AUC(0-t) ([1]; iv, 1 mg/kg): 2460 ng·h/mL; Cmax ([1]; iv, 1 mg/kg): 1780 ng/mL; clearance ([1]; iv, 1 mg/kg): 6.65 mL/min/kg; half-life ([1]; iv, 1 mg/kg): 69 min; Vd ([1]; iv, 1 mg/kg): 0.57 L/kg; AUC(0-inf) ([1]; po, ig, 5 mg/kg): 20600 ng·h/mL; AUC(0-t) ([1]; po, ig, 5 mg/kg): 20300 ng·h/mL; Cmax ([1]; po, ig, 5 mg/kg): 5320 ng/mL; half-life ([1]; po, ig, 5 mg/kg): 248 min
2 | O=C1c2ccc(Oc3c(Cl)cc(-n4ncc(=O)[nH]c4=O)cc3Cl)cc2CCN1Cc1cccc(C(F)(F)F)c1 [Example 34, 2-(3,5-dichloro-4-((2-(3-(trifluoromethyl)benzyl)-1-oxo-1,2,3,4-tetrahydroisoquinolin-6-yl)oxy)phenyl)-1,2,4-triazine-3,5(2H,4H)-dione] | > 100 | 0.021 | F ([1]; ig, 5 mg/kg): 111%; AUC(0-inf) ([1]; iv, 1 mg/kg): 22400 ng·h/mL; AUC(0-t) ([1]; iv, 1 mg/kg): 18800 ng·h/mL; Cmax ([1]; iv, 1 mg/kg): 3020 ng/mL; clearance ([1]; iv, 1 mg/kg): 0.744 mL/min/kg; half-life ([1]; iv, 1 mg/kg): 592 min; Vd ([1]; iv, 1 mg/kg): 0.531 L/kg; AUC(0-inf) ([1]; po, ig, 5 mg/kg): 124000 ng·h/mL; AUC(0-t) ([1]; po, ig, 5 mg/kg): 110000 ng·h/mL; Cmax ([1]; po, ig, 5 mg/kg): 8460 ng/mL; half-life ([1]; po, ig, 5 mg/kg): 460 min
3 | O=C1c2ccc(Oc3c(Cl)cc(-n4ncc(=O)[nH]c4=O)cc3Cl)cc2CCN1c1cccc(F)c1 [Example 42, 2-(3,5-dichloro-4-((2-(3-fluorophenyl)-1-oxo-1,2,3,4-tetrahydroisoquinolin-6-yl)oxy)phenyl)-1,2,4-triazine-3,5(2H,4H)-dione] | > 100 | 0.016 | F ([1]; ig, 5 mg/kg): 134.8%; AUC(0-inf) ([1]; iv, 1 mg/kg): 1960 ng·h/mL; AUC(0-t) ([1]; iv, 1 mg/kg): 1860 ng·h/mL; Cmax ([1]; iv, 1 mg/kg): 4340 ng/mL; clearance ([1]; iv, 1 mg/kg): 8.49 mL/min/kg; half-life ([1]; iv, 1 mg/kg): 178 min; Vd ([1]; iv, 1 mg/kg): 0.658 L/kg; AUC(0-inf) ([1]; po, ig, 5 mg/kg): 13200 ng·h/mL; AUC(0-t) ([1]; po, ig, 5 mg/kg): 12700 ng·h/mL; Cmax ([1]; po, ig, 5 mg/kg): 7700 ng/mL; half-life ([1]; po, ig, 5 mg/kg): 152 min
4 | CCN1CCc2cc(Oc3c(Cl)cc(-n4nc(C#N)c(=O)[nH]c4=O)cc3Cl)ccc2C1=O [Example 5, 2-(3,5-dichloro-4-((2-ethyl-1-oxo-1,2,3,4-tetrahydroisoquinolin-6-yl)oxy)phenyl)-3,5-dioxo-2,3,4,5-tetrahydro-1,2,4-triazine-6-carbonitrile] | 0.074 | 0.014 | –
5 | N#Cc1nn(-c2cc(Cl)c(Oc3ccc4c(c3)CCN(c3ccccn3)C4=O)c(Cl)c2)c(=O)[nH]c1=O [Example 47f, 2-(3,5-dichloro-4-((1-oxo-2-(pyridin-2-yl)-1,2,3,4-tetrahydroisoquinolin-6-yl)oxy)phenyl)-3,5-dioxo-2,3,4,5-tetrahydro-1,2,4-triazine-6-carbonitrile] | > 100 | 0.214 | –
6 | N#Cc1nn(-c2cc(Cl)c(Oc3ccc4c(c3)CCN(Cc3cccc(F)c3)C4=O)c(Cl)c2)c(=O)[nH]c1=O [Example 31d, 2-(3,5-dichloro-4-((2-(3-fluorobenzyl)-1-oxo-1,2,3,4-tetrahydroisoquinolin-6-yl)oxy)phenyl)-3,5-dioxo-2,3,4,5-tetrahydro-1,2,4-triazine-6-carbonitrile] | > 100 | 0.034 | –
7 | N#Cc1nn(-c2cc(Cl)c(Oc3ccc4c(c3)CCNC4=O)c(Cl)c2)c(=O)[nH]c1=O [Example 1, 2-(3,5-dichloro-4-((1-oxo-1,2,3,4-tetrahydroisoquinolin-6-yl)oxy)phenyl)-3,5-dioxo-2,3,4,5-tetrahydro-1,2,4-triazine-6-carbonitrile] | > 100 | 0.26 | –
8 | N#Cc1nn(-c2cc(Cl)c(Oc3ccc4c(c3)CCN(c3cccnc3)C4=O)c(Cl)c2)c(=O)[nH]c1=O [Example 49f, 2-(3,5-dichloro-4-((1-oxo-2-(pyridin-3-yl)-1,2,3,4-tetrahydroisoquinolin-6-yl)oxy)phenyl)-3,5-dioxo-2,3,4,5-tetrahydro-1,2,4-triazine-6-carbonitrile] | > 100 | 0.769 | –
9 | N#Cc1nn(-c2cc(Cl)c(Oc3ccc4c(c3)CCN(Cc3cc(F)cc(F)c3)C4=O)c(Cl)c2)c(=O)[nH]c1=O [Example 32d, 2-(3,5-Dichloro-4-((2-(3,5-difluorobenzyl)-1-oxo-1,2,3,4-tetrahydroisoquinolin-6-yl)oxy)phenyl)-3,5-dioxo-2,3,4,5-tetrahydro-1,2,4-triazine-6-carbonitrile] | > 100 | 0.054 | –
10 | N#Cc1nn(-c2cc(Cl)c(Oc3ccc4c(c3)CCN(c3ccc(F)cc3)C4=O)c(Cl)c2)c(=O)[nH]c1=O [Example 28g] | > 100 | 0.128 | –
11 | O=C1c2ccc(Oc3c(Cl)cc(-n4ncc(=O)[nH]c4=O)cc3Cl)cc2CCN1c1ccncc1 [Example 48, 2-(3,5-dichloro-4-((1-oxo-2-(pyridin-4-yl)-1,2,3,4-tetrahydroisoquinolin-6-yl)oxy)phenyl)-1,2,4-triazine-3,5(2H,4H)-dione] | 0.558 | 0.065 | –
12 | N#Cc1nn(-c2cc(Cl)c(Oc3ccc4c(c3)CCCNC4=O)c(Cl)c2)c(=O)[nH]c1=O [Example 7, 2-(3,5-Dichloro-4-((1-oxo-2,3,4,5-tetrahydro-2H-benzo[c]azepin-7-yl)oxy)phenyl)-3,5-dioxo-2,3,4,5-tetrahydro-1,2,4-triazine-6-carbonitrile] | 0.95 | 0.092 | –
13 | O=C1c2ccc(Oc3c(Cl)cc(-n4ncc(=O)[nH]c4=O)cc3Cl)cc2CCN1Cc1cccc(F)c1 [Example 31, 2-(3,5-dichloro-4-((2-(3-fluorobenzyl)-1-oxo-1,2,3,4-tetrahydroisoquinolin-6-yl)oxy)phenyl)-1,2,4-triazine-3,5(2H,4H)-dione] | 0.107 | < 0.0046 | –
14 | O=C1c2ccc(Oc3c(Cl)cc(-n4ncc(=O)[nH]c4=O)cc3Cl)cc2CCN1Cc1ccc(F)c(Cl)c1 [Example 35, 2-(3,5-dichloro-4-((2-(3-chloro-4-fluorobenzyl)-1-oxo-1,2,3,4-tetrahydroisoquinolin-6-yl)oxy)phenyl)-1,2,4-triazine-3,5(2H,4H)-dione] | 0.092 | < 0.0046 | –
15 | N#Cc1nn(-c2cc(Cl)c(Oc3ccc4c(c3)CCN(CC3CCOCC3)C4=O)c(Cl)c2)c(=O)[nH]c1=O [Example 12, 2-(3,5-Dichloro-4-((1-oxo-2-((tetrahydro-2H-pyran-4-yl)methyl)-1,2,3,4-tetrahydroisoquinolin-6-yl)oxy)phenyl)-3,5-dioxo-2,3,4,5-tetrahydro-1,2,4-triazine-6-carbonitrile] | 0.451 | 0.021 | –
16 | Cc1ccc(F)cc1CN1CCc2cc(Oc3c(Cl)cc(-n4ncc(=O)[nH]c4=O)cc3Cl)ccc2C1=O [Example 40, 2-(3,5-dichloro-4-((2-(5-fluoro-2-methylbenzyl)-1-oxo-1,2,3,4-tetrahydroisoquinolin-6-yl)oxy)phenyl)-1,2,4-triazine-3,5(2H,4H)-dione] | 0.179 | < 0.0046 | –
17 | N#Cc1nn(-c2cc(Cl)c(Oc3ccc4c(=O)[nH]ccc4c3)c(Cl)c2)c(=O)[nH]c1=O [Example 19, 2-(3,5-Dichloro-4-((1-oxo-1,2-dihydroisoquinolin-6-yl)oxy)phenyl)-3,5-dioxo-2,3,4,5-tetrahydro-1,2,4-triazine-6-carbonitrile] | > 100 | 0.501 | –
18 | O=C1c2ccc(Oc3c(Cl)cc(-n4ncc(=O)[nH]c4=O)cc3Cl)cc2CCN1CC1CCOCC1 [Example 23, 2-(3,5-dichloro-4-((1-oxo-2-((tetrahydro-2H-pyran-4-yl)methyl)-1,2,3,4-tetrahydroisoquinolin-6-yl)oxy)phenyl)-1,2,4-triazine-3,5(2H,4H)-dione] | 0.386 | 0.013 | –
